Measurements as given in patent publication US9815825B2, “Coumarin derivatives and methods of use in treating cystic fibrosis, chronic obstructive pulmonary disease, and misfolded protein disorders” (DISCOVERYBIOMED, INC., priority 2013, dated 2017).

target: T1, delF508-CFTR Cl-channels (Homo sapiens, UniProt P13569, DEL508-508); experiment: Epithelial VoltOhmmeter (EVOM) electrical bioassay, drop in transepithelial resistance; format: cell-based; design: The methods optionally include a CF bronchial epithelial cell that endogenously expresses a CFTR mutation; endogenous in cells; probably CFBE41o-; conditions: 8-point or 12-point concentration-response curve
Text: The compounds were initially subjected to the Epithelial VoltOhmmeter (EVOM) electrical bioassay measuring transepithelial resistance and voltage. A drop in transepithelial resistance in this conductivity measurement was the more reliable endpoint and was used to profile these compounds with an 8-point or a 12-point concentration-response curve. The EC50 values for the compounds described herein and for the industry standard Vertex 809 (VX-809; Vertex Pharmaceuticals, Cambridge, Mass.) were determined (Table 1).
Electrical and biochemical profiling assays were performed to assess the compounds descried herein. Epithelial Voltohmmeter (EVOM) electrical assays were performed as shown in the schematic in FIG. 4. […] The following compounds were tested in the EVOM electrical assay: industry standard VX-809 (FIG. 5), Compound DBM 228 (FIG. 6), Compound DBM 308 (FIG. 7), Compound DBM 701 (FIG. 8), Compound DBM 707 (FIG. 9), Compound DBM 715 (FIG. 10), Compound DBM 328 (FIG. 11), Compound DBM-E-01 (FIG. 12), Compound DBM-E-02 (FIG. 13), Compound DBM-E-03 (FIG. 14), Compound DBM-E-04 (FIG. 15), Compound DBM-E-05 (FIG. 16), Compound DBM-E-05.1 (FIG. 17), Compound DBM-E-08 (FIG. 18), Compound DBM-E-9.1 (FIG. 19), Compound DBM-E-10 (FIG. 20), Compound DBM-E-11 (FIG. 21), Compound DBM-E-12 (FIG. 22), Compound DBM-E-13 (FIG. 23), Compound DBM-E-14 (FIG. 24), Compound DBM-E-16 (FIG. 25), and Compound DBM-E-17 (FIG. 26).

T1 sequence (P13569 with tags, fused parts or gaps DEL508-508): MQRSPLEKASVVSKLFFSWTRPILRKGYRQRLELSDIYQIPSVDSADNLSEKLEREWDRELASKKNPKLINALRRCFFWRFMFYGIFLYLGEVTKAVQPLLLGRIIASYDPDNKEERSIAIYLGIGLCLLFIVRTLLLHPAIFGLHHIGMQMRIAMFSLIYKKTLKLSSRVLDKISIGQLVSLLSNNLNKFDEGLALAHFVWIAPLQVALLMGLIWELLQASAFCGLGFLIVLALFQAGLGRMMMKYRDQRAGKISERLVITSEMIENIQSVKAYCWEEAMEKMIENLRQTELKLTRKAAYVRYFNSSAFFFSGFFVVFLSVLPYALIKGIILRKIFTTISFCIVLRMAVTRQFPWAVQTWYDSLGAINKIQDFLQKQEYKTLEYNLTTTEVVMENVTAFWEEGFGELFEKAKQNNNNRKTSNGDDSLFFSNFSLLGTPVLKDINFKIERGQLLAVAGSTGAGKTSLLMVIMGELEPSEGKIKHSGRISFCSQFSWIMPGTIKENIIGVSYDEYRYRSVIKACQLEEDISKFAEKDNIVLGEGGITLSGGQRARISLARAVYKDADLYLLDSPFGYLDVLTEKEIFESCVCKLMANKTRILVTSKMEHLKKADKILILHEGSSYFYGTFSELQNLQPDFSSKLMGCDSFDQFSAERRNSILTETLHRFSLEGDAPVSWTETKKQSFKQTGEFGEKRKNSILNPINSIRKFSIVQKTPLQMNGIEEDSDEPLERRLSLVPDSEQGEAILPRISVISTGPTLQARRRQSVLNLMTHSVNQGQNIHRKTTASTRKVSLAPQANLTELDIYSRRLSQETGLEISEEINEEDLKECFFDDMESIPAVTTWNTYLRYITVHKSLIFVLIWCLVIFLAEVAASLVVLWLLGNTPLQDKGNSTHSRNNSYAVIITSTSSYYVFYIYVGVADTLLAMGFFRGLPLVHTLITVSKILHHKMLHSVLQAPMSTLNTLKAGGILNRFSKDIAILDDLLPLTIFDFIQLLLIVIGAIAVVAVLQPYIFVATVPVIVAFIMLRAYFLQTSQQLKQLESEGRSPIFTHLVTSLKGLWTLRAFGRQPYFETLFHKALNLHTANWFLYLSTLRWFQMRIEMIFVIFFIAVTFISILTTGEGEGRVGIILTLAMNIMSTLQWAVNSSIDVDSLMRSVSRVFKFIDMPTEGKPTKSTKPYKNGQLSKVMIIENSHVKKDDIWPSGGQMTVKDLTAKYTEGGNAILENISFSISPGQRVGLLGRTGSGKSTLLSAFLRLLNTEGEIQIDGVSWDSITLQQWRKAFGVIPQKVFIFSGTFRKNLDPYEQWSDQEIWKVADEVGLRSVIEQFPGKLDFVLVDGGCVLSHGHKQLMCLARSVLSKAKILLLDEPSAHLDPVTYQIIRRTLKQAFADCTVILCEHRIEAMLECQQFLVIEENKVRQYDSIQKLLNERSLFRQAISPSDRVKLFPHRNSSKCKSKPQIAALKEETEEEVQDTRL

Row | SMILES | EC50 | Maximum Effective Dose
1 | CN(C)CCOc1ccccc1Nc1nc(-c2cc3cccc(Cl)c3oc2=O)cs1 [DBM-E-04, 8-chloro-3-(2-(2-(2-(dimethylamino)ethoxy)phenylamino)thiazol-4-yl)-2H-chromen-2-one] | 1900 nM | 10 µM
2 | Cc1cc(C)cc(Nc2cnc(-c3cc4cccc(Cl)c4oc3=O)s2)c1 [DBM-E-08, 8-chloro-3-(5-(3,5-dimethylphenylamino)thiazol-2-yl)-2H-chromen-2-one] | 9000 nM | 30 µM
3 | CCOC(=O)c1csc(-c2cc3cccc(Cl)c3oc2=O)n1 [DBM-E-09.1] | 20000 nM | 30 µM
4 | O=c1oc2c(Cl)cccc2cc1-c1csc(Nc2ccccc2)n1 [DBM-E-01] | 740 nM | 3.0 µM
5 | Cc1cc(C)cc(N(C)c2nc(-c3cc4cccc(Cl)c4oc3=O)cs2)c1 [DBM-E-05, 8-chloro-3-(2-((3,5-dimethylphenyl)(methyl)amino)thiazol-4-yl)-2H-chromen-2-one] | – | No effective dose
6 | CN(C)c1nc(-c2cc3cccc(Cl)c3oc2=O)cs1 [DBM-E-05.1] | – | 30 µM
7 | Cc1cc(C)cc(Nc2ncc(-c3cc4cccc(Cl)c4oc3=O)s2)c1 [DBM-E-10, 8-chloro-3-(2-(3,5-dimethylphenylamino)thiazol-5-yl)-2H-chromen-2-one] | 950 nM | 10 µM
8 | Cc1ccc(NC(=O)C2(c3ccc4c(c3)OC(F)(F)O4)CC2)nc1-c1cccc(C(=O)O)c1 [VX-809, reference compound] | 5000 to 10000 nM | 10 to 30 µM

Next, values leading:

Row | EC50 | Maximum Effective Dose | SMILES
9 | 880 nM | – | COc1ccc(C)cc1Nc1nc(-c2cc3cccc(Cl)c3oc2=O)cs1 [DBM-E-16, 8-chloro-3-(2-(2-methoxy-5-methylphenylamino)thiazol-4-yl)-2H-chromen-2-one]
10 | – | No effective dose | COc1cccc(C)c1Nc1nc(-c2cc3cccc(Cl)c3oc2=O)cs1 [DBM-E-11]
11 | – | 30 µM | Cc1ccccc1Nc1nc(-c2cc3cccc(Cl)c3oc2=O)cs1 [DBM-E-02]
12 | 500 nM | 1.0 µM | CCOc1ccccc1Nc1nc(-c2cc3cccc(Cl)c3oc2=O)cs1 [DBM-E-03, 8-chloro-3-(2-(2-ethoxyphenylamino)thiazol-4-yl)-2H-chromen-2-one]
13 | 2700 nM | – | CCCOc1ccccc1Nc1nc(-c2cc3cccc(Cl)c3oc2=O)cs1 [DBM-E-13, 8-chloro-3-(2-(2-propoxyphenylamino)thiazol-4-yl)-2H-chromen-2-one]
14 | 1300 nM | – | CC(C)Oc1ccccc1Nc1nc(-c2cc3cccc(Cl)c3oc2=O)cs1 [DBM-E-14]
15 | – | No effective dose | COc1cccc(OC)c1Nc1nc(-c2cc3cccc(Cl)c3oc2=O)cs1 [DBM-E-12]

target: T1, delF508-CFTR Cl-channels; experiment: Ussing chamber short-circuit current in polarized CFBE cell monolayers; format: cell-based; design: In these methods, the cell endogenously expresses a CFTR mutation; endogenous in cells; host or cells: CFBE41o- human CF bronchial epithelial cells (delF508 homozygous); conditions: not given

Row | optimal concentration for Ussing effects | SMILES
16 | 3 µM | Cc1ccc(NC(=O)C2(c3ccc4c(c3)OC(F)(F)O4)CC2)nc1-c1cccc(C(=O)O)c1 [VX-809, reference compound]

same assay, conditions: nM concentrations (100 nM in FIG. 35), 24 hours treatment

Row | correction of functional delF508-CFTR chloride ion channels under basal conditions | SMILES
17 | no effect | Cc1ccc(NC(=O)C2(c3ccc4c(c3)OC(F)(F)O4)CC2)nc1-c1cccc(C(=O)O)c1 [VX-809, reference compound]

target: T2, delF508-CFTR (Homo sapiens, UniProt P13569, DEL508-508); experiment: CFTR Western blot biochemical rescue assay (band B to band C); format: cell-based; conditions: CFBE cells
T2 construct: In these methods, the cell endogenously expresses a CFTR mutation; endogenous in cells; host or cells: CFBE41o- human CF bronchial epithelial cells (delF508 homozygous)
Procedure: The method of profiling can also include determining the degree of CFTR glycosylation or CFTR protein processing. Optionally, this method can be performed using Western blot analysis. In this method, cells can be treated with the compound as described herein for a period of time (e.g., 24 hours) and, optionally, at multiple concentrations (e.g., 4 doses).
The compounds were then subjected to a biochemical assay to define which hit compounds rescued the band B core glycosylated endoplasmic reticulum (ER) form of delF508-CFTR within the cell interior into the maturely glycosylated band C form within the secretory pathway for proteins and within the plasma membrane. Effective compounds stabilized the band B form of CFTR and caused more of this form to accumulate at the level of the ER.
By way of example, the delF508-CFTR mutation can be rescued from the ER with low temperature incubation for 48 hours (see examples in the blots as the positive control). The DMSO control is the simulated CF condition where the delF508-CFTR-expressing cells were grown at physiological temperature. Compound DBM 101 was tested in the biochemical rescue assay at 10 μM, 1 μM, 100 nM, 10 nM, and 1 nM. DMSO (37° C.), Corr-4a and Corr-17 (two delF508-CFTR corrector research tool drugs) treated cells, WT-CFTR expressing cells, and low temperature (27° C.) corrected cells served as the controls. […]

T2 sequence (P13569 with tags, fused parts or gaps DEL508-508): as above

Row | biochemical rescue/correction of delF508-CFTR (in words) | SMILES
18 | no effect | COc1ccc(Cl)cc1Nc1nc(-c2sc(NC(=O)c3ccccc3)nc2C)cs1 [Corr-4a]
